Measurements reported in patent publication US6420367B1, “Pyrimidine derivatives exhibiting antitumor activity” (Shionogo & Co., Ltd., priority 1998, dated 2002).
Converted amounts (≈) assume the structure as drawn.

Experiments:
[1] = system: DT-R cells (pRRE3-luc-transfected v-ki-ras-transformed NIH3T3 cells); signal derived from Ras oncogene products; assay: Inhibitory effect against cellular signaling derived from Ras oncogene products: luciferase reporter, dissociation of DT-R from DT-C activity (MAC); type: cell-based, mouse; settings: minimal tested concentration at which luciferase activities of DT-C cells and DT-R cells dissociated
Outline: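 Value is a minimal active concentration: lowest dose where Ras-responsive reporter (DT-R) luciferase diverges from SV40-minimal-promoter control (DT-C). Both transfected v-Ki-ras NIH3T3 lines received 3-fold serial dilutions for 24 h at 37 °C in 10% FCS medium before lysis and luminometry.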

[2] = system: DT-C cells (pGV-P-transfected v-ki-ras-transformed NIH3T3 cells); assay: Luciferase activity in control DT-C cells (IC50-C): non-specific transcription-inhibitory effect or cytotoxicity; type: cell-based, mouse; settings: tested concentration nearest to 50% inhibition in DT-C cells; index of non-specific transcription inhibition or cytotoxicity
Text: Test Example 1 Inhibitory Effect Against Cellular Signaling Derived From Ras Oncogene Products
1) Establishment of Cell Lines Used in Assay
Based on the reporter plasmid (pGV-P (Toyo Ink, Japan)), in which luciferase gene was ligated to SV40-derived minimal promoter, we constructed a plasmid designated pRRE3-luc by inserting 3 copies of chemically synthesized oligonucleotides (Sequence: CAGGATATGACTCT, derived from mouse NVL-3 (M. A. Reddy et al.(1992)Mol. Endocrinol., 6, 1051)) into upstream of the promoter. v-ki-ras-transformed NIH3T3 cells (DT cells, provided by Dr. Makoto Noda (Kyoto Univ., School of medicine)) were transfected with this plasmid by liposome-mediated transfection and transfected cell lines stably incorporated and maintained each plasmid were obtained. We named pGV-P and pRRE3-transfected cell line as DT-C and DT-R, respectively and used in the assay described below.
2) Preparation of Samples
i) All the cell lines were cultured in Dulbecco's Modified Essential Medium (DMEM: 10% Fetal Calf Serum(FCS: Hyclone, USA)) including […] kanamycin (Meiji Seika, Japan) in humidified incubator under condition of 5% CO2 at 37° C.
ii) DT-C and DT-R cells were seeded at 2500 cells/well into flat-bottom 96 well multiplate (Sumitomo bakelite) and incubated for 24 hours.
iii) Test compounds were prepared as 1 mg/ml DMSO solution.
iv) The solution of test compounds were added to the culture. Tested compounds are used at the concentration from […] to 0.51 ng/ml with by 3-fold dilution.
v) After 24 hours, the culture supernatant was completely aspirated and […] of cell-lysing solution (PGC-50 (Toyo Ink, Japan)) was added before cells were dried up. In order to the cells were lysed completely, multiwell plates were left at room temperature for 10 to 30 min. The plates were wrapped up and stored at −20° C. till the day of measurement.
3) Measurement of Samples
i) Melt the samples by putting 96 well multiplate at 37° C. and add 90 μl/well 25 mM Tris (pH 7.5).
ii) Transfer 50 μl of the sample (110 μl) to the 96 well microplate for measurement (Microlite 1 (Dynatech)).
iii) Measure the samples by the luminometer, LUMINOUS CT9000D (Dia-Yatron, Japan). We used Pickagene luminescence kit PGL2000 or LT2.0 (Toyo Ink, Japan) as substrates for luminescence measurement (50 μl/well).
4) Judgment of the Results
i) The luciferase activity of DT-C cells and DT-R cells were plotted in the graph where the relative activity and the compound concentration were expressed as Y-axis and X-axis, respectively. We judged by the degree of dissociation between the activities of DT-C cells and DT-R cells as an index.
ii) Concretely, efficacy of the compound was expressed by two values described below.
b) Among the points of concentration tested, the concentration which is the nearest to 50% inhibition concentration at DT-C cells (IC50-C), was shown as an index of non-specific transcription-inhibitory effect or of cytotoxicity. In case of positive compounds, 50% inhibition concentration above the area of active concentration in DT-C cells was expressed as IC50-C.

[3] = system: human squamous lung cancer Ma44; assay: In vitro cell growth inhibition test, MTT assay; type: cell-based; settings: MTT assay 4 days after compound addition
Outline: (§1)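 Read-out is MTT-based cell growth inhibition, run in parallel on human lung, colon and pancreatic (PANC-1) tumour lines.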

[4] = system: human lung adenocarcinoma A549; assay: In vitro cell growth inhibition test, MTT assay; type: cell-based; settings: MTT assay 4 days after compound addition
Outline: as §1

[5] = system: human squamous lung cancer RERF-RC-AI; assay: In vitro cell growth inhibition test, MTT assay; type: cell-based; settings: MTT assay 4 days after compound addition
Outline: as §1

human colon cancer HT29 = assay: In vitro cell growth inhibition test, MTT assay; type: cell-based; settings: MTT assay 4 days after compound addition
Outline: as §1

[6] = system: human pancreas cancer PANC-1; assay: In vitro cell growth inhibition test, MTT assay; type: cell-based; settings: MTT assay 4 days after compound addition
Outline: as §1

Row | Compound | MAC (Minimal Active Concentration) [1] [µg/mL] | IC50-C [2] [mg/L] | IC50, Ma44 [3] [mg/L] | IC50, A549 [4] [mg/L] | IC50, RERF-LC-AI [5] [mg/L] | IC50, HT29 (human colon cancer HT29) [mg/L] | IC50, PANC-1 [6] [mg/L]
1 | CCNC(=Nc1nc(C)ncc1CSc1nnc(-c2ccccc2N)o1)NCC [Compound A-24] | 0.0137 | 3.33 (≈ 8.07 µM) | 0.028 (≈ 0.0679 µM) | 0.026 (≈ 0.063 µM) | 0.0071 (≈ 0.0172 µM) |  | 
2 | CCNC(=Nc1nc(C)ncc1CSc1nnc(-c2ccccc2NC(=O)CC)o1)NCC [Compound A-26] | 0.370 | >10 | 0.055 (≈ 0.117 µM) | 0.06 (≈ 0.128 µM) | 0.016 (≈ 0.0341 µM) |  | 
3 | CCNC(=Nc1nc(C)ncc1CSc1nnc(-c2ccc(F)cc2N)o1)NCC [Compound A-49] | <0.000508 | 3.33 (≈ 7.73 µM) | 0.0032 (≈ 0.00743 µM) |  | 0.0016 (≈ 0.00372 µM) | 0.0028 (≈ 0.0065 µM) | 
4 | CCNC(=Nc1nc(C)ncc1CSc1nnc(-c2c(N)cccc2F)o1)NCC [Compound A-51] | 0.123 | 3.33 (≈ 7.73 µM) | 0.088 (≈ 0.204 µM) |  | 0.012 (≈ 0.0279 µM) | 0.028 (≈ 0.065 µM) | 
5 | CCNC(=Nc1nc(C)ncc1CSc1nnc(-c2ccc(F)cc2NC(C)=O)o1)NCC [Compound A-60] | <0.000508 | >10 | 0.012 (≈ 0.0254 µM) |  | 0.004 (≈ 0.00846 µM) |  | 0.0039 (≈ 0.00825 µM)
6 | CCNC(=Nc1nc(C)ncc1CSc1nnc(-c2ccc(N)cc2O)o1)NCC [Compound A-96] | 0.370 | >10 |  |  |  |  | 
7 | CCNC(=Nc1ncncc1CSc1nnc(-c2ccc(F)cc2)o1)NCC [Compound A-110] | 0.123 | >10 | 0.063 (≈ 0.157 µM) | 0.042 (≈ 0.105 µM) | 0.006 (≈ 0.0149 µM) | 0.0077 (≈ 0.0192 µM) | 
8 | CCNC(=Nc1ncncc1CSc1nnc(-c2ccc(N)cc2)o1)NCCOC(C)=O [Compound A-112] | 1.11 | >10 | 2 (≈ 4.38 µM) | 0.38 (≈ 0.832 µM) | 0.023 (≈ 0.0504 µM) | 0.064 (≈ 0.14 µM) | 
9 | CCNC(=Nc1ncncc1CSc1nnc(-c2ccc(C(N)=S)cc2)o1)NCC [Compound A-123] | 1.11 | >10 | 0.09 (≈ 0.203 µM) | 0.15 (≈ 0.339 µM) | 0.034 (≈ 0.0768 µM) | 0.041 (≈ 0.0926 µM) | 
10 | CCNC(=Nc1ncncc1CSc1nnc(-c2ccc([N+](=O)[O-])cc2OC)o1)NCC [Compound A-124] | 0.0137 | >10 | 0.024 (≈ 0.0523 µM) | 0.026 (≈ 0.0567 µM) | 0.022 (≈ 0.048 µM) | 0.028 (≈ 0.0611 µM) | 
11 | CCCNC(=Nc1nc(C)ncc1CSc1nnc(-c2ccc(N)cc2)o1)NCCC.Cl.Cl [Compound A-160] | 0.0137 | >10 |  |  |  |  | 
12 | CCNC(=Nc1nc(C)ncc1CSc1nnc(-c2ccc([N+](=O)[O-])cc2)o1)NC.Cl [Compound A-163] | 0.0137 | >10 |  |  |  |  | 
13 | CCCNC(=Nc1nc(C)ncc1CSc1nnc(-c2ccc([N+](=O)[O-])cc2)o1)NC.Cl [Compound A-164] | 0.0137 | >10 |  |  |  |  | 
14 | CCCNC(=Nc1nc(C)ncc1CSc1nnc(-c2ccc([N+](=O)[O-])cc2)o1)NCC.Cl [Compound A-188] | 0.0137 |  | 0.016 | 0.052 | 0.012 | 0.01 | 0.017
15 | CCNC(=Nc1nc(C)ncc1CSc1nnc(-c2ccc(N)cc2OC)o1)NCC.Cl [Compound A-189] | 0.0412 |  | 0.085 | 0.051 | 0.016 | 0.032 | 0.021
16 | CCNC(=Nc1nc(C)ncc1CSc1nnc(-c2cccnc2N)o1)NCC [Compound D-1] | 1.11 | >10 |  |  |  |  | 
17 | CCNC(=Nc1ncncc1CSc1nnc(-c2ccsc2)o1)NCC [Compound D-21] | 0.37 | >10 | 0.35 (≈ 0.899 µM) | 0.049 (≈ 0.126 µM) | 0.013 (≈ 0.0334 µM) | 0.016 (≈ 0.0411 µM) | 
18 | CCNC(=Nc1ncncc1CSc1nnc(-c2ccc(C)nc2)o1)NCC [Compound D-29] | 1.11 | >10 | 0.52 (≈ 1.3 µM) | 0.22 (≈ 0.552 µM) | 0.11 (≈ 0.276 µM) | 0.09 (≈ 0.226 µM) | 
19 | CCNC(=Nc1ncncc1CSc1nnc(-c2ccoc2)o1)NCC [Compound D-30] | 1.11 | >10 | 2.4 (≈ 6.43 µM) | 0.1 (≈ 0.268 µM) | 0.046 (≈ 0.123 µM) | 0.033 (≈ 0.0884 µM) | 
20 | CCNC(=Nc1nc(C)ncc1CSc1nnc(-c2ccsc2NC(C)=O)o1)NCC [Compound D-36] | 0.0412 | >10 | 0.065 (≈ 0.141 µM) | 0.032 (≈ 0.0695 µM) | 0.023 (≈ 0.0499 µM) | 0.049 (≈ 0.106 µM) | 
21 | CCNC(=Nc1nc(C)ncc1CSc1nnc(-c2ccc([N+](=O)[O-])cn2)o1)NCC [Compound D-45] | 1.11 |  | 0.74 (≈ 1.67 µM) | 0.0061 (≈ 0.0138 µM) | 0.062 (≈ 0.14 µM) | 0.038 (≈ 0.0857 µM) | 0.12 (≈ 0.271 µM)
